In PMC6438731, “Extrasynaptic δ‐GABAA receptors are high‐affinity muscimol receptors” (Journal of Neurochemistry, 2019):
Where “and” joins values, the source holds several entries; their conditions need not be identical. Identical values can stand only once. Like-named read-outs stand apart in the source and are kept apart here.

Columns and labels:
[1] = biological target: native δ‐GABAARs in the forebrain (WT‐δKO, predominantly α4βδ) (Mus musculus, UniProt P63137+Q9D6F4); assay: [^3H]muscimol binding kinetics, forebrain WT‐δKO (subtracted); conditions: 22°C
Method: (§1) WT and δKO forebrain and cerebellar membranes were prepared using a modification of the method of Squires and Saederup (2000) essentially as described by Uusi‐Oukari et al. (2014). […] forebrain along with midbrain region was homogenized into 10 mM Tris‐HCl, pH 8.0 buffer containing 2 mM EDTA, using an Ultra‐Turrax T25 (Janke & Kunkel IKA labortechnik) for 20 s at 9500 rpm. The homogenates were centrifuged at 20 000 g for 10 min at +4°C and the resulting pellets were washed three times by resuspension and re‐centrifugation with 10 mM Tris‐HCl, pH 8.5 buffer containing 0.2 M NaCl, and 5 mM EDTA. The resulting pellets were then suspended in ice‐cold H2O and centrifuged. The pellets were again washed three times with Tris, pH 8.5/NaCl/EDTA as described above. The resulting pellets were finally suspended in assay buffer consisting of 50 mM Tris‐base, pH adjusted to 7.4 with citric acid, and frozen at −70°C. Before a binding experiment, the suspension was thawed, centrifuged, and suspended in assay buffer.
The binding of [^3H]muscimol (5 nM) was measured in assay buffer at 22°C in a total volume of 300 μL. Triplicate technical replicates of mouse forebrain (190–215 μg protein), cerebellar (180–210 μg protein) or HEK cell (92–132 μg protein) membranes for each time point were incubated with shaking for various times (15 s–15 min) to measure association of the binding. […] Air‐dried filters were immersed in 3 mL of Optiphase HiSafe 3 scintillation fluid (Wallac, Turku, Finland) and radioactivity determined in a Wallac model 1410 liquid scintillation counter (Wallac, Turku, Finland). […]
The tubes were mixed and incubations at 22°C were terminated at various time points (30 s – 30 min) as described above. Dissociation of [^3H]muscimol from recombinant receptors in HEK cell membranes was also measured at 0–4°C (on ice) to evaluate how fast [^3H]muscimol dissociates from receptors while washing the filter with ice‐cold assay buffer during filtration. […]

[2] = biological target: forebrain membranes of δKO mice (non‐δ‐GABAARs); assay: [^3H]muscimol binding kinetics, δKO forebrain membranes; design: species or system mouse
Method: as §1
The binding of [^3H]muscimol (5 nM) was measured in assay buffer at 22°C in a total volume of 300 μL. Triplicate technical replicates of mouse forebrain (190–215 μg protein), cerebellar (180–210 μg protein) or HEK cell (92–132 μg protein) membranes for each time point were incubated with shaking for various times (15 s–15 min) to measure association of the binding. […] The incubation was terminated by filtration of the samples with a Brandel Cell Harvester (model M‐24, Gaithersburg, MD, USA) onto Whatman GF/B filters (Whatman International Ltd., Maidstone, UK). The samples were rinsed twice with 4–5 mL of ice‐cold assay buffer. Filtration and rinsing steps took a total time of ~15 s. Air‐dried filters were immersed in 3 mL of Optiphase HiSafe 3 scintillation fluid (Wallac, Turku, Finland) and radioactivity determined in a Wallac model 1410 liquid scintillation counter (Wallac, Turku, Finland). The maximal binding disintegrations per minute (DPM) values (at 15 min in association) for recombinant studies with 5 nM [^3H]muscimol were between 700 and 2500 DPMs of specific binding (background subtracted). In native membranes, the maximal DPM values were between 2500 and 3000 for WTs and 1300–1500 for δKOs.
The tubes were mixed and incubations at 22°C were terminated at various time points (30 s – 30 min) as described above. Dissociation of [^3H]muscimol from recombinant receptors in HEK cell membranes was also measured at 0–4°C (on ice) to evaluate how fast [^3H]muscimol dissociates from receptors while washing the filter with ice‐cold assay buffer during filtration.

[3] = design: method as in Maggi and Enna 1979; conditions: rat brain, ref Maggi and Enna 1979; cited from earlier work
[4] = biological target: cerebellar membranes of WT mice; assay: Saturation analysis of [^3H]muscimol binding, WT cerebellar membranes; design: species or system mouse; conditions: 0°C
Method: as §1
Saturation analysis of [^3H]muscimol to WT and δKO mouse forebrain and cerebellar membranes was performed essentially as described by Uusi‐Oukari and Korpi (1989). […] The incubations were terminated as described above.

[5] = forebrain WT‐δKO (native δ‐GABAARs, by subtraction)

Sequence of native δ‐GABAARs in the forebrain (WT‐δKO, predominantly α4βδ) (Q9D6F4 36-552): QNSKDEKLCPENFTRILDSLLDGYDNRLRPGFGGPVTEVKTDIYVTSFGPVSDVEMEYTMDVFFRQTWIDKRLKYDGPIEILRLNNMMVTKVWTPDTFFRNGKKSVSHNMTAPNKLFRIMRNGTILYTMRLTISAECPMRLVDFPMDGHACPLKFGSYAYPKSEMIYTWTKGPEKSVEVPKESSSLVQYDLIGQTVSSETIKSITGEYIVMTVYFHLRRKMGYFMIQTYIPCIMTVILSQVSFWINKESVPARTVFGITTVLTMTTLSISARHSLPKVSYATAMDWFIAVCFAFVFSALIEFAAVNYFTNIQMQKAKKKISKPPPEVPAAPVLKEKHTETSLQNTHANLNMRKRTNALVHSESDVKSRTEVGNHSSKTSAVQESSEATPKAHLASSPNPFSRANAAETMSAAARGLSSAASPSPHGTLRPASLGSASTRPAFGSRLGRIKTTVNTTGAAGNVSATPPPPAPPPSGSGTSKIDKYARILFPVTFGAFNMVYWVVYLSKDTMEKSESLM
Sequence of native δ‐GABAARs in the forebrain (WT‐δKO, predominantly α4βδ) (P63137 26-512): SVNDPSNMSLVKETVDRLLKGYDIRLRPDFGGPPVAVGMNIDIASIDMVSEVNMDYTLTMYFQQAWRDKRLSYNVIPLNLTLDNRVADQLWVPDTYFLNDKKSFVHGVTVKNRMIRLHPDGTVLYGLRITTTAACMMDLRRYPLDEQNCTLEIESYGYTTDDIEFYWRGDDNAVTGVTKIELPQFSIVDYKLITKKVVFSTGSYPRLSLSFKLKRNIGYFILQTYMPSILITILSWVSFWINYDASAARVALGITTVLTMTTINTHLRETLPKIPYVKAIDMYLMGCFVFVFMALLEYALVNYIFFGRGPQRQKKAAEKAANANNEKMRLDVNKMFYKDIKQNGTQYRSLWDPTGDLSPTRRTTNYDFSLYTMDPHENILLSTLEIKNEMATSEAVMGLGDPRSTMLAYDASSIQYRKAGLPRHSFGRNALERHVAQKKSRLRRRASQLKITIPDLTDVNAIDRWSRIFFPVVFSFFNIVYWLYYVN
Sequence of native δ‐GABAARs in the forebrain (WT‐δKO, predominantly α4βδ) (P22933 25-449 partner): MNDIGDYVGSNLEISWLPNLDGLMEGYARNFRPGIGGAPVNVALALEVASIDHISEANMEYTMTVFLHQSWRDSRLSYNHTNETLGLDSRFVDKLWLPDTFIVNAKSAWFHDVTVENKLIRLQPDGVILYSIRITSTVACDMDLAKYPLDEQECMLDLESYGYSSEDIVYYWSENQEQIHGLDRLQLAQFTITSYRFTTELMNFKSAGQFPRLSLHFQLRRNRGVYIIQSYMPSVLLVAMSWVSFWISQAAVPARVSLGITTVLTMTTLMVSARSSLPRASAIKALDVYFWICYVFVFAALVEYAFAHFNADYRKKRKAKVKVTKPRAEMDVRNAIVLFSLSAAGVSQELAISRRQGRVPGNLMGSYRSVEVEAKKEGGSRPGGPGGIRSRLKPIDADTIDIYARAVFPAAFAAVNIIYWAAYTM

SMILES: NCc1cc(=O)[nH]o1 [[^3H]muscimol] [[Methylene‐^3H]muscimol]
- k off [1, 5]: 0.00383 ± 0.00033 s⁻¹
- k on [1, 5]: 1.4 ± 0.2 × 10^8 M^−1 × min^−1
- Kd ([1]; forebrain WT‐δKO (native δ‐GABAARs, α4βδ), K D = koff/kon): ~1.6 nM and 1.6 nM
- Kd ([2]; calculated from k on and k off, read-out: apparent [^3H]muscimol affinities (K D) for non‐δ‐GABAARs): ~1 nM
- Kd ([2]; forebrain membranes, 22°C, K D = koff/kon, read-out: K D): 1.1 nM
- k off ([2]; forebrain membranes, room temperature (22°C)): 1.67 ± 0.15 ^*** min^−1
- k on ([2]; forebrain membranes, room temperature (22°C), 5 nM [^3H]muscimol): 15 ± 3.1 × 10^8 ^** M^−1 × min^−1
- fraction of peripherally injected [^3H]muscimol that entered the brain [3]: around 0.02%
- Apparent pKD [4]: 8.34 ± 0.01
